The source made the active and inactive calls.
How the values were obtained:
[1] = biological target: T1, Estrogen receptor beta (Homo sapiens, UniProt Q92731);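 further: recombinant ER-beta bound to coactivator SRC1 peptide in presence of estradiol agonist; inhibitors block coactivator peptide binding and lower the FRET signal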
[2] = biological target: T1, Estrogen receptor beta; assay: blockers of SRC-3 recruitment to ERβ – biochemical, ELISA, streptavidin-HRP readout, orthogonal assay, confirmation (AID 1060)
[3] = luciferase reporter signal suppression in cells – H4 neuroglioma cells, luminescence, dose response (AID 1990); type: functional, cell-based
[4] = Luminescence Cell-Based Dose Response HTS to Identify Inhibitors of 5'UTR Stem-Loop Driven Prion Protein mRNA Translation in H4 Neuroglioblastoma Cells. [Related pubchem assays: 1827 (Project Summary), 1813 (Primary HTS)]; type: functional
[5] = alpha-synuclein stem-loop luciferase translation blockers – H4 neuroglioma cells, luminescence, confirmation (AID 1988); type: functional, cell-based
[6] = biological target: Melanin-concentrating hormone receptor 1 (Homo sapiens, UniProt Q99705); assay: Fluorescence-based counterscreen for antagonists of the G-protein coupled receptor 7 (GPR7): cell-based high throughput dose response assay to identify antagonists of the melanin-concentrating hormone receptor 1 (MCHR1).; type: functional
[7] = biological target: T2, Neuropeptides B/W receptor type 1 (Homo sapiens, UniProt P48145); assay: Fluorescence-based dose response cell-based high throughput screening assay to identify antagonists of the G-protein coupled receptor 7 (GPR7). [Related pubchem assays: 1952 (Screening assay (GPR7 antagonists).), 1880 (Summary AID.)]; type: functional
T2 sequence (P48145 whole entry): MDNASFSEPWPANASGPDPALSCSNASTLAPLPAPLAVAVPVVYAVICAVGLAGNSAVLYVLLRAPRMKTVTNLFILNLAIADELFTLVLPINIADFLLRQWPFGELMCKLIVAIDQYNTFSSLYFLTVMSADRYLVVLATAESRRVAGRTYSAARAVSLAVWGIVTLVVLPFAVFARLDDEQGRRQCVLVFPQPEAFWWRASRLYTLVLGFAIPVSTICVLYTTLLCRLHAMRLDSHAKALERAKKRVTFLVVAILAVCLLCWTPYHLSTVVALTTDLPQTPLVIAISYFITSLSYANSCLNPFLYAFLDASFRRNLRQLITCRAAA

[8] = NIH3T3 cell viability loss – ATP luminescence, mouse fibroblasts, counter-screen, dose response (AID 2010); type: functional, cell-based;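 further: cells exposed to compound for about 90 hours before reading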
[9] = cells
[10] = Trypanosoma cruzi growth suppression in host cells – NIH3T3 host cells, beta-gal luminescence, confirmation (AID 2044); type: functional, cell-based;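 further: intracellular parasites grown in NIH/3T3 mouse fibroblasts as host cells; luminescent beta-galactosidase reporter signal from transgenic T. cruzi replicating inside host cells; inhibitors lower the luminescence signal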
[11] = biological target: T3, Eukaryotic translation initiation factor 2-alpha kinase 3 (Homo sapiens, UniProt Q9NZJ5); assay: Dose response cell-based high-throughput screening assay to measure PERK inhibition. [Related pubchem assays: 1416 ]; type: functional
T3 sequence (Q9NZJ5 whole entry): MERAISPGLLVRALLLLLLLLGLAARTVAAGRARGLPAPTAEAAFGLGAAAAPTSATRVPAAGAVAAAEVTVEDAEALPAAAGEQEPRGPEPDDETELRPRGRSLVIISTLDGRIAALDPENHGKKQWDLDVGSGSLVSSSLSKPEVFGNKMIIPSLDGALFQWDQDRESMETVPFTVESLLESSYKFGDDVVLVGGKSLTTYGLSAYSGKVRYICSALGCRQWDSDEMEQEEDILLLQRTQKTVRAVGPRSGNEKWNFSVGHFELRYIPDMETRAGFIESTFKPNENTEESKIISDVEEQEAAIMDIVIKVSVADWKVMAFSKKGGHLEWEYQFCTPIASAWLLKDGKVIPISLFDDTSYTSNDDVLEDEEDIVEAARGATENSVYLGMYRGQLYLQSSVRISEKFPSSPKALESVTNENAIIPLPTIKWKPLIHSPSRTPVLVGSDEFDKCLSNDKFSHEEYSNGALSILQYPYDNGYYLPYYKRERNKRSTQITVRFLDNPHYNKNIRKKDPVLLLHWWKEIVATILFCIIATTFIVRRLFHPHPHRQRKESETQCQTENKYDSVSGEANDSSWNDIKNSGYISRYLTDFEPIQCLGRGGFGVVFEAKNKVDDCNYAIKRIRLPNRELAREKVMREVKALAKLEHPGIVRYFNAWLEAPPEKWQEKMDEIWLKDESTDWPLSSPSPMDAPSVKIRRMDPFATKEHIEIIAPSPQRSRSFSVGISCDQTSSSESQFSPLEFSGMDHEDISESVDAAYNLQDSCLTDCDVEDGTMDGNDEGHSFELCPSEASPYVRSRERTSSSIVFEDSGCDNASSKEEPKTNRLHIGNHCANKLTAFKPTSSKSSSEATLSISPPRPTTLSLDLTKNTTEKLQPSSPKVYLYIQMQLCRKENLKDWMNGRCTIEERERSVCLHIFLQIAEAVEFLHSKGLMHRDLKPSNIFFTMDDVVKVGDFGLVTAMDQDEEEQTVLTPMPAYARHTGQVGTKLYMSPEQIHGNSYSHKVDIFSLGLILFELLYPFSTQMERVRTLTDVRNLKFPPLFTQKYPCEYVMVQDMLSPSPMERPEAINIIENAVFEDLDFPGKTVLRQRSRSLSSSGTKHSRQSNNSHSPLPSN

[12] = biological target: T3, Eukaryotic translation initiation factor 2-alpha kinase 3; assay: Counterscreen assay for PERK inhibitors: Dose response cell-based high throughput screening assay to measure inhibition of PERK at 6 hours. [Related pubchem assays: 1522, 1416 ]; type: functional
[13] = HEK-293T viability loss after treatment – luminescence, T-cell screen hits, cytotoxicity control for TCR NF-kB inhibitor project, dose response (AID 489026); type: functional, cell-based;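 further: cells exposed to compound about 14 hours before the viability readout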
[14] = viability of HCT116 lacking mutant beta-catenin – cell-based, human colon tumor, dose response (AID 1045); type: functional;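 further: HCT116 colon tumor cells with beta catenin knocked out; cells exposed to compound for 60 hours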
[15] = luciferase reporter signal reduction – luminescence, H4-C neuroglioblastoma cells, dose response (AID 2458); type: functional, cell-based;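 further: H4 neuroglioblastoma cells stably carrying a luciferase reporter gene fusion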
[16] = viability of PTEN-deleted HCT116 cells – cell-based, HCT116 PTEN knockout, dose response (AID 1047); type: functional;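 further: HCT116 colon tumor cells with PTEN knocked out; cells exposed to compound for 60 hours before readout; potency for loss of cell viability measured by luminescence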
[17] = alpha-synuclein stem-loop translation blockers – luminescence, H4 neuroglioblastoma cells, dose confirmation, confirmation (AID 2454); type: functional, cell-based;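 further: H4 neuroglioblastoma cells carrying an alpha-synuclein 5'UTR luciferase reporter; potency for inhibition of the luciferase signal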
[18] = cells; type: functional, cell-based

T1 sequence (Q92731 whole entry): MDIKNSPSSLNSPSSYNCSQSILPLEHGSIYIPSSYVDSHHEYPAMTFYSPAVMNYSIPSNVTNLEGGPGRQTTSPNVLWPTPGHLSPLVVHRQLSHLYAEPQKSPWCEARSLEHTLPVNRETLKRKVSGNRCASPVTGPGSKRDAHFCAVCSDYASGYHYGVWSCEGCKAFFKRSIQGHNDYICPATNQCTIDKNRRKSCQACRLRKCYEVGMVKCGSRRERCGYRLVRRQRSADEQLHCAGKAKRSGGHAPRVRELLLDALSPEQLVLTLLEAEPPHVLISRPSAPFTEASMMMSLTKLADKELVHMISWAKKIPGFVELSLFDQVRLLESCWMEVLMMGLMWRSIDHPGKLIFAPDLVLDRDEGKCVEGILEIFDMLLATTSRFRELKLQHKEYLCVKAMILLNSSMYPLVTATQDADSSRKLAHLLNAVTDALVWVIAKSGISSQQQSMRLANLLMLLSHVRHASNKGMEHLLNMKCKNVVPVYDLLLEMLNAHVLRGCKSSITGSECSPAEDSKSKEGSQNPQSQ
Sequence of Melanin-concentrating hormone receptor 1 (Q99705 whole entry): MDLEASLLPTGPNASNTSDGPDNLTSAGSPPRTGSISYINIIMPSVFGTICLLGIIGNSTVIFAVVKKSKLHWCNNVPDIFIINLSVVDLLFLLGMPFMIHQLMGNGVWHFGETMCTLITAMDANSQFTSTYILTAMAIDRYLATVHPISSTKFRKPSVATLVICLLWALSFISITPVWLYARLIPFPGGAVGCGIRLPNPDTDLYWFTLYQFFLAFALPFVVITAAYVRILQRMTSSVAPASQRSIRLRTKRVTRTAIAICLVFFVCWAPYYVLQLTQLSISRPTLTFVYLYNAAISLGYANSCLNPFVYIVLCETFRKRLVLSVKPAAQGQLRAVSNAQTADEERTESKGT

## Oc1ccccc1-c1nnc(SCCN2CCOCC2)n1Cc1ccccc1
[1]
  IC50: 3.51 µM (active)
[2]
  IC50: < 0.023 µM (not active)
[3]
  EC50: 9.74 µM (active)
[4]
  EC50: 8.21 µM (active)
[5]
  EC50: 7.29 µM (active)

## O=c1[nH]c2ccccc2c(=O)n1Cc1ccco1
[1]
  IC50: > 50 µM (not active)

## Cc1ccc(-n2c(SCC(N)=O)nnc2-c2ccc(S(=O)(=O)N3CCCCC3)cc2)c(C)c1
[6]
  IC50: 29.6 µM (not active)
[7]
  IC50: 5.29 µM (active)

## CCc1ccc(CN2CCCC(CNC(=O)c3cccc(OC)c3OC)C2)cc1 (stereo unspecified)
[8]
  EC50: > 60 µM (not active)
[9]
  EC50: 0.37 µM (active)
[10]
  EC50: < 0.1 µM (active)

## COC(=O)C(NC(C)=O)(Nc1ccc(C)cn1)C(F)(F)F (stereo unspecified)
[11]
  EC50: > 55.7 µM (not active)
[12]
  EC50: > 55.7 µM (not active)

## CCn1c2ccccc2c2cc(Nc3cc(C)nc4ncnn34)ccc21
[13]
  IC50: 43.4 µM (inactive)
[14]
  EC50: < 0.059 µM (active)
[15]
  EC50: 0.265 µM (active)
[3]
  EC50: < 0.1 µM (active)
[16]
  EC50: < 0.059 µM (active)
[17]
  EC50: 0.354 µM (active)
[18]
  EC50: 0.255 µM (active)
[5]
  EC50: < 0.1 µM (active)

From ChEMBL document CHEMBL1201862, “PubChem BioAssay data set” (2004)
